ChEMBL document CHEMBL1201862, “PubChem BioAssay data set” (2004)
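Dose response: 5 concentrations. Exposure: 48 h. Format: 96-well plates. Endpoint: linear interpolation; highest concentration if not reached. Abbreviation: GI50, concentration required for 50% inhibition of growth.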 Active and inactive are the calls of the source. Rule as the data show it: active = GI50 up to about 1.1 µM and inactive = higher.

Legend:
Experiment in all cases: growth of human tumour cells (NCI), 48 h
SF-295 = system: SF-295
KM12 = system: KM12
CAKI-1 = system: CAKI-1
K562 = system: K562
OVCAR-4 = system: OVCAR-4
OVCAR-5 = system: OVCAR-5
SNB-19 = system: SNB-19
HCC 2998 = system: HCC 2998
UACC-257 = system: UACC-257
MOLT-4 = system: MOLT-4
COLO 205 = system: COLO 205
EKVX = system: EKVX
SR = system: SR
SK-MEL-5 = system: SK-MEL-5
SF-268 = system: SF-268
SK-MEL-28 = system: SK-MEL-28
A498 = system: A498
RPMI-8226 = system: RPMI-8226

Measured: GI50

COC(=O)CC1CC2(C(=O)OC)c3[nH]c4ccccc4c3CCN2C1=O (configuration not stated)
inactive: SF-295 > 100 µM | KM12 > 100 µM | CAKI-1 > 100 µM | K562 > 100 µM | OVCAR-4 > 100 µM | OVCAR-5 > 100 µM | SNB-19 > 100 µM | HCC 2998 > 100 µM | UACC-257 > 100 µM | MOLT-4 > 100 µM | COLO 205 > 100 µM | EKVX > 100 µM | SR > 100 µM | SK-MEL-5 > 100 µM | SF-268 > 100 µM | SK-MEL-28 > 100 µM | A498 > 100 µM

O=C1OC(=O)c2c1nc1ccccc1c2-c1ccccc1
inactive: SF-295 > 100 µM | KM12 > 100 µM | CAKI-1 > 100 µM | K562 > 100 µM | OVCAR-4 > 100 µM | OVCAR-5 > 100 µM | SNB-19 > 100 µM | HCC 2998 > 100 µM | RPMI-8226 > 100 µM | UACC-257 > 100 µM | MOLT-4 > 100 µM | COLO 205 > 100 µM | SR > 100 µM | SK-MEL-5 > 100 µM | SF-268 > 100 µM | A498 > 100 µM

C#CCN(N=O)C(=O)NCCCCC(NC(C)=O)C(=O)NCc1ccccc1 (configuration not stated)
inactive: SF-295 > 100 µM | KM12 > 100 µM | CAKI-1 > 100 µM | K562 54.1 µM | OVCAR-4 > 100 µM | OVCAR-5 > 100 µM | SNB-19 > 100 µM | HCC 2998 > 100 µM | RPMI-8226 51.2 µM | UACC-257 > 100 µM | MOLT-4 28.4 µM | COLO 205 > 100 µM | EKVX > 100 µM | SR 53 µM | SK-MEL-5 > 100 µM | SF-268 > 100 µM | SK-MEL-28 > 100 µM | A498 > 100 µM

CS(=O)(=O)OC1CCC2(C#N)CCC1C2=O (configuration not stated)
inactive: SF-295 > 100 µM | KM12 > 100 µM | CAKI-1 > 100 µM | K562 > 100 µM | OVCAR-4 > 100 µM | OVCAR-5 > 100 µM | SNB-19 > 100 µM | HCC 2998 46.1 µM | RPMI-8226 21.9 µM | UACC-257 > 100 µM | MOLT-4 > 100 µM | COLO 205 70.8 µM | EKVX > 100 µM | SR 19.8 µM | SK-MEL-5 > 100 µM | SF-268 > 100 µM | SK-MEL-28 > 100 µM | A498 > 100 µM

Cc1cccc(NC(=O)C(=O)C(C2OC(=O)c3ccccc32)[N+](=O)[O-])c1C (configuration not stated)
inactive: SF-295 14.9 µM | KM12 12.8 µM | CAKI-1 7.43 µM | K562 4.42 µM | OVCAR-4 8.11 µM | OVCAR-5 19.1 µM | SNB-19 16.2 µM | HCC 2998 13.8 µM | UACC-257 5.61 µM | MOLT-4 2.99 µM | COLO 205 15.4 µM | EKVX 17.6 µM | SR 3.13 µM | SK-MEL-5 6.53 µM | SF-268 7.52 µM | SK-MEL-28 12.6 µM | A498 15.7 µM

CC(C)c1cccc(C(C)C)c1NC(=O)C(=O)C(C(=O)c1ccc2ccccc2c1)C1OC(=O)c2ccccc21 (configuration not stated)
inactive: SF-295 > 100 µM | KM12 > 100 µM | CAKI-1 52.4 µM | K562 > 100 µM | OVCAR-4 > 100 µM | OVCAR-5 26.9 µM | SNB-19 > 100 µM | HCC 2998 > 100 µM | RPMI-8226 > 100 µM | UACC-257 > 100 µM | MOLT-4 > 100 µM | COLO 205 > 100 µM | EKVX 24.5 µM | SR > 100 µM | SK-MEL-5 > 100 µM | SF-268 > 100 µM | SK-MEL-28 > 100 µM | A498 34 µM

COC(=O)CC1NC(=O)C1C1(C)OCCO1 (configuration not stated)
inactive: SF-295 > 100 µM | OVCAR-4 > 100 µM | SNB-19 > 100 µM | HCC 2998 > 100 µM | RPMI-8226 > 100 µM | UACC-257 > 100 µM | COLO 205 > 100 µM | EKVX > 100 µM | SR > 100 µM | SK-MEL-5 > 100 µM | SF-268 > 100 µM | SK-MEL-28 > 100 µM | A498 > 100 µM

Cc1ccc(/C=C/C(=O)C(C)C)cc1
inactive: SF-295 38.3 µM | KM12 48.8 µM | K562 31.3 µM | OVCAR-4 > 100 µM | OVCAR-5 18.4 µM | SNB-19 84.7 µM | HCC 2998 > 100 µM | RPMI-8226 27.9 µM | UACC-257 53.6 µM | MOLT-4 30.2 µM | COLO 205 > 100 µM | EKVX > 100 µM | SR 31.8 µM | SK-MEL-5 50.9 µM | SF-268 > 100 µM | SK-MEL-28 > 100 µM | A498 > 100 µM

COC(=O)c1cccc2c3ccccc3c3ccccc3c12
inactive: SF-295 26.6 µM | KM12 39.5 µM | CAKI-1 40.4 µM | K562 29 µM | OVCAR-4 64.3 µM | OVCAR-5 49.1 µM | SNB-19 30.4 µM | HCC 2998 43.1 µM | UACC-257 38.3 µM | MOLT-4 24.5 µM | COLO 205 16.6 µM | EKVX > 100 µM | SR 36.8 µM | SK-MEL-5 30.1 µM | SF-268 37.2 µM | SK-MEL-28 41.5 µM | A498 20.2 µM

COC1CCC2C(=O)CCCC2O1 (configuration not stated)
inactive: SF-295 > 100 µM | KM12 > 100 µM | CAKI-1 > 100 µM | K562 > 100 µM | OVCAR-4 > 100 µM | OVCAR-5 > 100 µM | SNB-19 > 100 µM | HCC 2998 > 100 µM | RPMI-8226 > 100 µM | UACC-257 > 100 µM | MOLT-4 > 100 µM | COLO 205 > 100 µM | EKVX > 100 µM | SR > 100 µM | SK-MEL-5 > 100 µM | SF-268 > 100 µM | A498 > 100 µM

Cc1cccc(C(C)(C)C)c1NC(=O)CCl
inactive: SF-295 > 100 µM | KM12 > 100 µM | CAKI-1 > 100 µM | K562 > 100 µM | OVCAR-4 > 100 µM | SNB-19 > 100 µM | HCC 2998 > 100 µM | UACC-257 > 100 µM | MOLT-4 > 100 µM | COLO 205 > 100 µM | EKVX > 100 µM | SR > 100 µM | SK-MEL-5 > 100 µM | SF-268 > 100 µM | SK-MEL-28 > 100 µM | A498 > 100 µM

CC1(C)C(=O)CCC(=O)C(C)(C)C2=CC=C(O2)C(C)(C)C(=O)CCC(=O)C(C)(C)C2=CC=C1O2
inactive: SF-295 > 100 µM | KM12 > 100 µM | CAKI-1 > 100 µM | K562 > 100 µM | OVCAR-4 > 100 µM | OVCAR-5 > 100 µM | SNB-19 > 100 µM | HCC 2998 > 100 µM | UACC-257 > 100 µM | MOLT-4 > 100 µM | COLO 205 > 100 µM | EKVX > 100 µM | SR > 100 µM | SF-268 > 100 µM | SK-MEL-28 > 100 µM | A498 > 100 µM

CC(C)CCCC(C)[C@H]1CCC2[C@H]3C(CC[C@@]21C)[C@@]1(C)CCC=C[C@]12C[C@@H]2[C@@H]3O (some centres not stated)
inactive: SF-295 > 100 µM | KM12 > 100 µM | CAKI-1 > 100 µM | OVCAR-4 > 100 µM | OVCAR-5 > 100 µM | SNB-19 > 100 µM | HCC 2998 > 100 µM | RPMI-8226 > 100 µM | UACC-257 > 100 µM | MOLT-4 > 100 µM | COLO 205 > 100 µM | EKVX > 100 µM | SR > 100 µM | SK-MEL-5 > 100 µM | SF-268 > 100 µM | SK-MEL-28 > 100 µM | A498 > 100 µM

CC(C)[Si](OCC1CC(C#N)OC(C)(C)O1)(C(C)C)C(C)C (configuration not stated)
inactive: SF-295 14.9 µM | KM12 17.5 µM | CAKI-1 27.6 µM | K562 19 µM | OVCAR-4 30.3 µM | OVCAR-5 44 µM | SNB-19 22 µM | HCC 2998 21.2 µM | RPMI-8226 14.2 µM | UACC-257 17.3 µM | MOLT-4 19.6 µM | COLO 205 17.3 µM | EKVX 30.3 µM | SR 18.1 µM | SK-MEL-5 15.5 µM | SF-268 26.9 µM | SK-MEL-28 39.4 µM | A498 6.3 µM

C=C1CC[C@@H]2C(C)(C)C(O)CCC2(C)C1COc1ccc2ccc(=O)oc2c1 (some centres not stated)
inactive: SF-295 16.2 µM | KM12 15.6 µM | K562 16.6 µM | OVCAR-4 13.5 µM | SNB-19 18.3 µM | HCC 2998 19.9 µM | RPMI-8226 12.4 µM | UACC-257 18.6 µM | MOLT-4 14.7 µM | COLO 205 14.9 µM | EKVX 19.3 µM | SR 23.6 µM | SF-268 18.9 µM | SK-MEL-28 18.1 µM | A498 19.9 µM

CN(C)CCNc1nc(-c2cccs2)cc(-c2cccs2)n1
inactive: SF-295 14.3 µM | KM12 12.1 µM | CAKI-1 > 10 µM | K562 17.7 µM | OVCAR-4 > 10 µM | OVCAR-5 9.18 µM | HCC 2998 12.4 µM | UACC-257 11.6 µM | MOLT-4 3 µM | COLO 205 12.1 µM | SR 2.84 µM | SK-MEL-5 15.3 µM | SK-MEL-28 15.9 µM | A498 11.9 µM

COc1ccc(NCc2cc(OC)cc(OC)c2)cc1
inactive: SF-295 20.8 µM | KM12 5.7 µM | CAKI-1 9.75 µM | K562 3.88 µM | OVCAR-4 18.5 µM | OVCAR-5 24.7 µM | SNB-19 > 68.4 µM | HCC 2998 12.1 µM | RPMI-8226 17 µM | UACC-257 40.6 µM | MOLT-4 17.1 µM | COLO 205 9.33 µM | EKVX 78.5 µM | SR 13.1 µM | SK-MEL-5 9.91 µM | SF-268 26 µM | SK-MEL-28 24.5 µM | A498 27.5 µM
